# According to the supplement of paper PMC10307832:
# Key:
# Test in all cases: relative viability (nuclei count vs DMSO), 5 days (fraction); higher = more cells survive
# COR-L 105 = system: COR-L 105
# Outline: (§1)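 Relative viability divides the nuclei count in treated wells by that in vehicle wells. Lung cancer cell lines were seeded in 1536-well plates, dosed by pin tool the next day, and fixed and stained after 5 days in one step with final 0.05% Triton X-100, 1% formaldehyde and 1 ug/ml Hoechst. Dosing was a single drug or a fixed anchor-drug dose plus five library-drug doses (not always all listed) in √10 steps, and values are medians of duplicate plates imaged at 4×.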
# COR-L23 = system: COR-L23
# Outline: as §1
# HARA = system: HARA
# Outline: as §1
# HCC-15 = system: HCC-15
# Outline: as §1
# HOP-62 = system: HOP-62
# Outline: as §1
# NCI-H1355 = system: NCI-H1355
# Outline: as §1
# NCI-H1395 = system: NCI-H1395
# Outline: as §1
# NCI-H1734 = system: NCI-H1734
# Outline: as §1
# NCI-H1755 = system: NCI-H1755
# Outline: as §1
# NCI-H1792 = system: NCI-H1792
# Outline: as §1
# NCI-H1793 = system: NCI-H1793
# Outline: as §1
# NCI-H1993 = system: NCI-H1993
# Outline: as §1
# NCI-H2009 = system: NCI-H2009
# Outline: as §1
# NCI-H2170 = system: NCI-H2170
# Outline: as §1
# NCI-H2228 = system: NCI-H2228
# Outline: as §1
# NCI-H2347 = system: NCI-H2347
# Outline: as §1
# NCI-H358 = system: NCI-H358
# Outline: as §1
# NCI-H647 = system: NCI-H647
# Outline: as §1
# NCI-H838 = system: NCI-H838
# Outline: as §1
# SK-MES-1 = system: SK-MES-1
# Outline: as §1
# UMC-11 = system: UMC-11
# Outline: as §1
structure (smiles),measurement,setting,value
Nc1ccn([C@@H]2O[C@H](CO)[C@@H](O)[C@@H]2O)c(=O)n1 [Cytarabine] + CS(=O)(=O)N1CCN(Cc2cc3nc(-c4cccc5[nH]ncc45)nc(N4CCOCC4)c3s2)CC1 [Pictilisib] (partner 1 µM),relative viability,COR-L 105; first compound 0.005 µM,0.32
same,relative viability,COR-L 105; first compound 0.01581 µM,0.361
same,relative viability,COR-L 105; first compound 0.05 µM,0.312
same,relative viability,COR-L 105; first compound 0.1581 µM,0.311
same,relative viability,COR-L 105; first compound 0.5 µM,0.242
same,relative viability,COR-L23; first compound 0.005 µM,0.637
same,relative viability,COR-L23; first compound 0.01581 µM,0.51
same,relative viability,COR-L23; first compound 0.05 µM,0.532
same,relative viability,COR-L23; first compound 0.1581 µM,0.171
same,relative viability,COR-L23; first compound 0.5 µM,0.112
same,relative viability,HARA; first compound 0.005 µM,0.316
same,relative viability,HARA; first compound 0.01581 µM,0.368
same,relative viability,HARA; first compound 0.05 µM,0.163
same,relative viability,HARA; first compound 0.1581 µM,0.106
same,relative viability,HARA; first compound 0.5 µM,0.117
same,relative viability,HCC-15; first compound 0.005 µM,0.709
same,relative viability,HCC-15; first compound 0.01581 µM,0.704
same,relative viability,HCC-15; first compound 0.05 µM,0.672
same,relative viability,HCC-15; first compound 0.1581 µM,0.504
same,relative viability,HCC-15; first compound 0.5 µM,0.453
same,relative viability,HOP-62; first compound 0.005 µM,0.741
same,relative viability,HOP-62; first compound 0.01581 µM,0.469
same,relative viability,HOP-62; first compound 0.05 µM,0.315
same,relative viability,HOP-62; first compound 0.1581 µM,0.118
same,relative viability,HOP-62; first compound 0.5 µM,0.0794
same,relative viability,NCI-H1355; first compound 0.005 µM,0.398
same,relative viability,NCI-H1355; first compound 0.01581 µM,0.392
same,relative viability,NCI-H1355; first compound 0.05 µM,0.205
same,relative viability,NCI-H1355; first compound 0.1581 µM,0.302
same,relative viability,NCI-H1355; first compound 0.5 µM,0.196
same,relative viability,NCI-H1395; first compound 0.005 µM,0.616
same,relative viability,NCI-H1395; first compound 0.01581 µM,0.564
same,relative viability,NCI-H1395; first compound 0.05 µM,0.391
same,relative viability,NCI-H1395; first compound 0.1581 µM,0.365
same,relative viability,NCI-H1395; first compound 0.5 µM,0.316
same,relative viability,NCI-H1734; first compound 0.005 µM,0.365
same,relative viability,NCI-H1734; first compound 0.01581 µM,0.217
same,relative viability,NCI-H1734; first compound 0.05 µM,0.213
same,relative viability,NCI-H1734; first compound 0.1581 µM,0.147
same,relative viability,NCI-H1734; first compound 0.5 µM,0.118
same,relative viability,NCI-H1755; first compound 0.005 µM,0.378
same,relative viability,NCI-H1755; first compound 0.01581 µM,0.417
same,relative viability,NCI-H1755; first compound 0.05 µM,0.359
same,relative viability,NCI-H1755; first compound 0.1581 µM,0.223
same,relative viability,NCI-H1755; first compound 0.5 µM,0.191
same,relative viability,NCI-H1792; first compound 0.005 µM,0.314
same,relative viability,NCI-H1792; first compound 0.01581 µM,0.207
same,relative viability,NCI-H1792; first compound 0.05 µM,0.216
same,relative viability,NCI-H1792; first compound 0.1581 µM,0.174
same,relative viability,NCI-H1792; first compound 0.5 µM,0.188
same,relative viability,NCI-H1793; first compound 0.005 µM,0.312
same,relative viability,NCI-H1793; first compound 0.01581 µM,0.29
same,relative viability,NCI-H1793; first compound 0.05 µM,0.383
same,relative viability,NCI-H1793; first compound 0.1581 µM,0.307
same,relative viability,NCI-H1793; first compound 0.5 µM,0.194
same,relative viability,NCI-H1993; first compound 0.005 µM,0.84
same,relative viability,NCI-H1993; first compound 0.01581 µM,0.815
same,relative viability,NCI-H1993; first compound 0.05 µM,0.765
same,relative viability,NCI-H1993; first compound 0.1581 µM,0.712
same,relative viability,NCI-H1993; first compound 0.5 µM,0.525
same,relative viability,NCI-H2009; first compound 0.005 µM,0.907
same,relative viability,NCI-H2009; first compound 0.01581 µM,0.678
same,relative viability,NCI-H2009; first compound 0.05 µM,0.81
same,relative viability,NCI-H2009; first compound 0.1581 µM,0.487
same,relative viability,NCI-H2009; first compound 0.5 µM,0.224
same,relative viability,NCI-H2170; first compound 0.01581 µM,0.257
same,relative viability,NCI-H2170; first compound 0.05 µM,0.235
same,relative viability,NCI-H2170; first compound 0.1581 µM,0.191
same,relative viability,NCI-H2170; first compound 0.5 µM,0.192
same,relative viability,NCI-H2228; first compound 0.005 µM,0.29
same,relative viability,NCI-H2228; first compound 0.01581 µM,0.188
same,relative viability,NCI-H2228; first compound 0.05 µM,0.399
same,relative viability,NCI-H2228; first compound 0.1581 µM,0.109
same,relative viability,NCI-H2228; first compound 0.5 µM,0.146
same,relative viability,NCI-H2347; first compound 0.005 µM,0.536
same,relative viability,NCI-H2347; first compound 0.01581 µM,0.811
same,relative viability,NCI-H2347; first compound 0.05 µM,0.778
same,relative viability,NCI-H2347; first compound 0.1581 µM,0.482
same,relative viability,NCI-H2347; first compound 0.5 µM,0.588
same,relative viability,NCI-H358; first compound 0.005 µM,0.318
same,relative viability,NCI-H358; first compound 0.01581 µM,0.288
same,relative viability,NCI-H358; first compound 0.05 µM,0.298
same,relative viability,NCI-H358; first compound 0.1581 µM,0.179
same,relative viability,NCI-H358; first compound 0.5 µM,0.155
same,relative viability,NCI-H647; first compound 0.005 µM,0.39
same,relative viability,NCI-H647; first compound 0.01581 µM,0.212
same,relative viability,NCI-H647; first compound 0.05 µM,0.159
same,relative viability,NCI-H647; first compound 0.1581 µM,0.0808
same,relative viability,NCI-H647; first compound 0.5 µM,0.0843
same,relative viability,NCI-H838; first compound 0.005 µM,0.334
same,relative viability,NCI-H838; first compound 0.01581 µM,0.495
same,relative viability,NCI-H838; first compound 0.05 µM,0.435
same,relative viability,NCI-H838; first compound 0.1581 µM,0.257
same,relative viability,NCI-H838; first compound 0.5 µM,0.243
same,relative viability,SK-MES-1; first compound 0.005 µM,0.333
same,relative viability,SK-MES-1; first compound 0.01581 µM,0.305
same,relative viability,SK-MES-1; first compound 0.05 µM,0.227
same,relative viability,SK-MES-1; first compound 0.1581 µM,0.194
same,relative viability,SK-MES-1; first compound 0.5 µM,0.205
same,relative viability,UMC-11; first compound 0.005 µM,0.488
same,relative viability,UMC-11; first compound 0.01581 µM,0.411
same,relative viability,UMC-11; first compound 0.05 µM,0.318
same,relative viability,UMC-11; first compound 0.1581 µM,0.175
same,relative viability,UMC-11; first compound 0.5 µM,0.161
